For this test, the target named is T1, solubilized Aβ40 (Homo sapiens, UniProt P05067).
T1 construct: 20 μM of solubilized Aβ40
The test is described as follows: Mass spectroscopy (MS) assay of binding to soluble Aβ40. The arrangement: key: “+” = active; “−” = inactive. Particulars: 200 μM test compound, 20 μM solubilized Aβ40, 20% ethanol, pH 7.4, electrospray ionization MS. Here is the method: Test compounds were purchased from commercial sources or synthesized and screened by mass spectroscopy (“MS”) assay, which gives data on the ability of compounds to bind to an amyloid protein. Samples were prepared as aqueous solutions containing 20% ethanol, 200 μM of a test compound and 20 μM of solubilized Aβ40. The pH value of each sample was adjusted to 7.4 (±0.2) by addition of 0.1% aqueous sodium hydroxide. The solutions were then analyzed by electrospray ionization mass spectroscopy using a Waters ZQ 4000 mass spectrometer. Samples were introduced by direct infusion at a flow-rate of 25 μL/min within 2 hr. after sample preparation. The source temperature was kept at 70° C. and the cone voltage was 20 V for all the analysis. Data were processed using Masslynx 3.5 software. The MS assay gives data on the ability of compounds to bind to Aβ, whereas the ThT, EM and CD assays give data on inhibition of fibrillogenesis.

This is an account of results in patent publication US7262223B2, “Amidine derivatives for treating amyloidosis” (Neurochem (International) Limited, priority 2004, dated 2007).

Each structure is given as a SMILES string.

T1 sequence (P05067 672-711 limits assumed): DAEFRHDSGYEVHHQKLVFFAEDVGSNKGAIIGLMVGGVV

As for `N=C(NCCCCCCCN)c1ccc(Br)cc1` [Compound 145], the “MS Assay” value is “+”. Turning to `N=C(NCCCCCCCNC(=O)c1ccc(Br)cc1)c1ccc(Br)cc1` [Compound 146], the “MS Assay” value is given as “+”. With `N/C(=N\O)c1ccc(OCCCCCCCCCNO)cc1` [Compound 147], the “MS Assay” value is listed as “−”. In the case of `CCOC(=O)c1ccc(C(=O)NCCCCCCCNC(=O)c2ccc(C(=N)N)cc2)cc1` [Compound 148], the “MS Assay” value was “+”. With `CCOC(=O)c1ccc(C(=O)NCCCCCCCCCNC(=O)c2ccc(C(=N)N)cc2)cc1` [Compound 149], the “MS Assay” value is reported as “+”.

For the compound `N=C(NCCCCCNC(=N)c1ccc(Br)cc1)c1ccc(Br)cc1` [Compound 150], the “MS Assay” value is on record as “+”. For the compound `N=C(NCCCCCCCCCNC(=N)c1ccc(Br)cc1)c1ccc(Br)cc1` [Compound 151], the “MS Assay” value is on record as “+”. For the compound `COc1ccc(C(=N)NCCCCCCCCCNC(=N)c2ccc(OC)cc2)cc1` [Compound 152], the “MS Assay” value was “−”. Take `COc1ccc(C(=N)NCCN2CCN=C2c2ccc(OC)cc2)cc1` [Compound 153]: the “MS Assay” value was “+”. Consider `COc1ccc(C(=N)NCCCCCNC(=N)c2ccc(OC)cc2)cc1` [Compound 154], for which the “MS Assay” value is reported as “+”. With `N=C(N)c1ccc(C(=O)NCCN(CCNC(=O)c2ccc(C(=N)N)cc2)C(=O)c2ccc(C(=N)N)cc2)cc1` [Compound 155] the entry was “−”.

Turning to `Nc1ccc(OCCCCCOc2ccc(NC3=NCCN3)cc2)cc1` [Compound 156], the “MS Assay” value was “−”. With `N=C(N)c1ccc(S(=O)(=O)NCCCCCCCCCNS(=O)(=O)c2ccc(C(=N)N)cc2)cc1` [Compound 158], the “MS Assay” value is “−”.
